For experiment [1], the target named is T1, Epac2^Δ280 (Mus musculus, UniProt Q9EQZ6).
T1 construct: made in house
T1 sequence (Q9EQZ6 281-993 isoform Q9EQZ6-3): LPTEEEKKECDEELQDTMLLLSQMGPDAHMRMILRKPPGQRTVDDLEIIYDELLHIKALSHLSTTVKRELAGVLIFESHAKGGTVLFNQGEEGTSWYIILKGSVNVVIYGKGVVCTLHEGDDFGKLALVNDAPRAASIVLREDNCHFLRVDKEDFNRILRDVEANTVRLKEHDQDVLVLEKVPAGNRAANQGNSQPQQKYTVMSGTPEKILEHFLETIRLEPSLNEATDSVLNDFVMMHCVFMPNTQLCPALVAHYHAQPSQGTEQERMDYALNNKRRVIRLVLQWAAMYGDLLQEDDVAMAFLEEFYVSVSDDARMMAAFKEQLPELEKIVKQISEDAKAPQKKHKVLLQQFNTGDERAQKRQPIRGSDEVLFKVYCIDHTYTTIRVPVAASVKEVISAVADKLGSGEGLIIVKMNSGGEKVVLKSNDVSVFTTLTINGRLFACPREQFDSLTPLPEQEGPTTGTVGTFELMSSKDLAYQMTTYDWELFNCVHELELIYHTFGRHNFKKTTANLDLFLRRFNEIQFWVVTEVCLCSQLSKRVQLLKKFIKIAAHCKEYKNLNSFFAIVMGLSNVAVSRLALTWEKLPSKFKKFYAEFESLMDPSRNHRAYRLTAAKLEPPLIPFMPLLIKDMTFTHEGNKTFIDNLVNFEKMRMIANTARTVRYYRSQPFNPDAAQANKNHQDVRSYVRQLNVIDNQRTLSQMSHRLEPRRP
As to the kind of experiment: Epac activation assay (Rap1B•mGDP fluorescence nucleotide exchange), Epac2^Δ280. It is filed as biochemical. To be noted: Epac2^Δ280; for Rel. kmax: maximal activity relative to cAMP. As for the experimental part: Murine Epac2 was used as all previous structural studies were performed with it.
The activity of Epac was determined by a fluorescence assay. […] The fluorescence intensity of Rap1B•mGDP is approximately twice that of free mGDP, and thus, nucleotide exchange can be observed as a decay in fluorescence upon the addition of excess unlabeled GDP.

Experiment [2] has as its target T2, Epac1 (Homo sapiens, UniProt O95398).
T2 construct: made in house
T2 sequence (O95398 150-881 isoform O95398-3): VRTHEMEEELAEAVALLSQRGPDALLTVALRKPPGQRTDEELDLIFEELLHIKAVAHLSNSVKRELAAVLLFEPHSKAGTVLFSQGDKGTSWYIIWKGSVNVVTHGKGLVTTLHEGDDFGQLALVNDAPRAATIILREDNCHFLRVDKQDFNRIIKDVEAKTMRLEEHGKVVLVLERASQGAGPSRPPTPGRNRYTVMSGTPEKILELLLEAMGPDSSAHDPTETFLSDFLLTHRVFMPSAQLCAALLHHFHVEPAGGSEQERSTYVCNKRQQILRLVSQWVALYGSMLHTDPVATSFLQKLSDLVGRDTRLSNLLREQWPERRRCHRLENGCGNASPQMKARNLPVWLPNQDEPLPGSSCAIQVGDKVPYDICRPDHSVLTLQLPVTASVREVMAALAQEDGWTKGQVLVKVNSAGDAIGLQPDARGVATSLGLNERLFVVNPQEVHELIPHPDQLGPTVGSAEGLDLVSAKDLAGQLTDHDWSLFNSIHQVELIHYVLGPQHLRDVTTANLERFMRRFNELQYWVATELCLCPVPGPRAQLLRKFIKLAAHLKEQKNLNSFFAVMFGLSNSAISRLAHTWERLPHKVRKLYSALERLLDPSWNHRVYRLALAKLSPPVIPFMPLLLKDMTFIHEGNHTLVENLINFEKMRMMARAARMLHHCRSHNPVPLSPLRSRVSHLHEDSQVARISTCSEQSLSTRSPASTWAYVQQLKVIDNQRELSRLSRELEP
Put plainly: Epac activation assay, Epac1. Type of experiment: biochemical. To be noted: Epac1; for Rel. kmax: maximal activity relative to cAMP.

In experiment [1], `CNc1nc2c(N)ncnc2n1[C@@H]1O[C@@H]2COP(=O)(O)O[C@H]2[C@H]1Cl` [D-001, 8-MeA-2′-Cl-cAMP] displayed an AC50 of 45 µM and a Rel. kmax of 2.2. In experiment [2], the AC50 stood at 330 µM and the Rel. kmax is recorded as ~0.6?.

Regarding `Nc1ncnc2c1nc(Br)n2[C@@H]1O[C@@H]2COP(=O)(O)O[C@H]2[C@H]1Cl` [D-003, 8-Br-2′-Cl-cAMP], the AC50 was determined as 11 µM in experiment [1] and 260 µM in experiment [2]. The Rel. kmax in experiment [1] is reported as 0.9; in experiment [2] it was ~0.5?.

As for `Nc1ncnc2c1nc(Br)n2[C@@H]1O[C@@H]2COP(=O)(O)O[C@H]2[C@H]1F` [D-004, 8-Br-2′-F-cAMP], in experiment [1], the half-maximal activity concentration (AC50) amounted to 14 µM and the Rel. kmax is 1.5. Also, in experiment [2], the AC50 came out at 100 µM and the Rel. kmax is on record as 0.4.

In experiment [1], `CO[C@H]1C2OP(=O)(O)OC[C@H]2O[C@H]1n1c(Br)nc2c(N)ncnc21` (stereo partly drawn) [D-005, 8-Br-2′-O-Me-cAMP] had an AC50 of 8 µM and a Rel. kmax of 1.6. In experiment [2], the activity was half-maximal at 35 µM (AC50) and the Rel. kmax is recorded as 0.9.

In experiment [1], `CO[C@@H]1[C@@H]2OP(=O)(O)OC[C@H]2O[C@H]1n1c(Sc2ccc(O)cc2)nc2c(N)ncnc21` [D-008, 8-pOHPT-2′-O-Me-cAMP] showed a half-maximal activity concentration (AC50) of 1.5 µM and a Rel. kmax of 2.2. For the same compound, in experiment [2], the AC50 was found to be 1 µM and the Rel. kmax was found to be 3.1.

In experiment [1], `COc1ccc(Sc2nc3c(N)ncnc3n2[C@@H]2O[C@@H]3COP(=O)(O)OC3[C@@H]2OC)cc1` (stereo partly drawn) [D-009, 8-pMeOPT-2′-O-Me-cAMP] yielded an AC50 of 2.8 µM and a Rel. kmax of 0.5. In experiment [2], the activity was half-maximal at 2.3 µM (AC50) and the Rel. kmax came to 2.7.

Take `Nc1ncnc2c1nc([Se]Cc1ccccc1)n2[C@@H]1O[C@@H]2COP(=O)(O)O[C@H]2[C@H]1OCc1ccccc1` [D-012, 8-BnSe-2′-O-Bn-cAMP]: the half-maximal activity concentration (AC50) in experiment [1] was 4.6 µM; in experiment [2], 38 µM. Moreover, the Rel. kmax in experiment [1] is recorded as 1.0; in experiment [2] it was 0.9.

In experiment [1], `Nc1ncnc2c1nc(NC1CCCCC1)n2[C@@H]1O[C@@H]2COP(=O)(O)O[C@H]2[C@H]1O` [L-013, 8-cHA-cAMP] returned an AC50 of 4.7 µM and a Rel. kmax of 0.3. Besides, in experiment [2], the AC50 is 50 µM and the Rel. kmax turned out to be 0.3.

Regarding `Nc1ncnc2c1nc(NCc1ccccc1)n2[C@@H]1O[C@@H]2COP(=O)(O)O[C@H]2[C@H]1O` [L-014, 8-BnA-cAMP], the values for the concentration at half-maximal activity (AC50) in experiment [1] and in experiment [2] were 1.9 µM and 30 µM, respectively. Also, the Rel. kmax in experiment [1] is listed as 1.5; in experiment [2], 0.2.

Turning to `Nc1ncnc2c1nc(Br)n2[C@@H]1O[C@@H]2CO[P@](O)(=S)O[C@H]2[C@H]1F` [S-012, Sp-8-Br-2′-F-cAMPS], the half-maximal activity concentration (AC50) in experiment [1] was found to be 9.8 µM; in experiment [2], 75 µM. In addition, the Rel. kmax came to 1.2 in experiment [1] and 0.08 in experiment [2].

In experiment [1], `Nc1ncnc2c1nc(Br)n2[C@@H]1O[C@@H]2CO[P@](O)(=S)O[C@H]2[C@H]1Cl` [S-013, Sp-8-Br-2′-Cl-cAMPS] yielded an AC50 of 8 µM and a Rel. kmax of 0.5. In experiment [2], this compound yielded a concentration at half-maximal activity (AC50) of 110 µM and a Rel. kmax of 0.1.

For `CNc1nc2c(N)ncnc2n1[C@H]1C[C@@H]2O[P@@](O)(=S)OC[C@H]2O1` [S-031, Sp-8-MeA-2′-dcAMPS], in experiment [1], the activity was half-maximal at 40 µM (AC50) and the Rel. kmax is listed as 1.7. In experiment [2], this compound came in with an AC50 of 320 µM and a Rel. kmax of 0.1.

For the compound `CNc1nc2c(N)ncnc2n1[C@@H]1O[C@@H]2CO[P@](O)(=S)O[C@H]2[C@H]1Cl` [S-033, Sp-8-MeA-2′-Cl-cAMPS], in experiment [1], the concentration at half-maximal activity (AC50) was found to be 14 µM and the Rel. kmax was 0.7. Further, in experiment [2], the AC50 came out at 120 µM and the Rel. kmax was found to be 0.1.

`Nc1ncnc2c1nc(O)n2[C@@H]1O[C@@H]2CO[P@](O)(=S)O[C@H]2[C@H]1O` [S-130, Sp-8-OH-cAMPS]: in experiment [1], the half-maximal activity concentration (AC50) was 1.3 µM and the Rel. kmax is 1.4. In experiment [2], this compound yielded an AC50 of 80 µM and a Rel. kmax of 0.6.

For `CO[C@@H]1[C@@H]2O[P@@](O)(=S)OC[C@H]2O[C@H]1n1c(SC)nc2c(N)ncnc21` [S-180, Sp-8-MeT-2′-O-Me-cAMPS], in experiment [1], the half-maximal activity concentration (AC50) worked out at 3.7 µM and the Rel. kmax worked out at 3.2.

As to `Nc1ncnc2c1nc(SCCc1ccccc1)n2[C@@H]1O[C@@H]2CO[P@](O)(=S)O[C@H]2[C@H]1O` [S-190, Sp-8-PheET-cAMPS], in experiment [1], the half-maximal activity concentration (AC50) came to 0.14 µM and the Rel. kmax is given as 0.4. In experiment [2], this compound registered a concentration at half-maximal activity (AC50) of 6 µM and a Rel. kmax of 0.2.

In experiment [1], `Nc1ncnc2c1nc(Sc1ccc(O)cc1)n2[C@@H]1O[C@@H]2CO[P@](O)(=S)O[C@H]2[C@H]1O` [S-200, Sp-8-pOHPT-cAMPS] returned an AC50 of 0.07 µM and a Rel. kmax of 1.2.

In experiment [1], `Nc1ncnc2c1nc(Sc1ccc(O)cc1)n2[C@@H]1O[C@@H]2CO[P@](O)(=S)O[C@H]2[C@H]1F` [S-201, Sp-8-pOHPT-2′-F-cAMPS] displayed an AC50 of 1.6 µM and a Rel. kmax of 1.0.

In experiment [1], `CO[C@@H]1[C@@H]2O[P@@](O)(=S)OC[C@H]2O[C@H]1n1c(Sc2ccc(O)cc2)nc2c(N)ncnc21` [S-202, Sp-8-pOHPT-2′-O-Me-cAMPS] yielded a half-maximal activity concentration (AC50) of 1.6 µM and a Rel. kmax of 1.4.

For the compound `CC(C)(C)c1ccc(CSc2nc3c(N)ncnc3n2[C@@H]2O[C@@H]3CO[P@](O)(=S)O[C@H]3[C@H]2O)cc1` [S-240, Sp-8-ptBuBnT-cAMPS], in experiment [1], half-maximal activity (AC50) was put at 0.1 µM and the Rel. kmax is on record as 5.0.

In experiment [1], `COc1ccc(CSc2nc3c(N)ncnc3n2[C@@H]2O[C@@H]3CO[P@](O)(=S)O[C@H]3[C@H]2O)cc1` [S-250, Sp-8-pMeOBnT-cAMPS] had a half-maximal activity concentration (AC50) of 0.11 µM and a Rel. kmax of 5.4.

Consider `Nc1ncnc2c1nc(SCc1ccc(Cl)cc1)n2[C@@H]1O[C@@H]2CO[P@](O)(=S)O[C@H]2[C@H]1O` [S-260, Sp-8-pCBnT-cAMPS], for which, in experiment [1], the AC50 came to 0.08 µM and the Rel. kmax is recorded as 4.3.

Take `Nc1ncnc2c1nc(SCc1ccc(F)cc1)n2[C@@H]1O[C@@H]2CO[P@](O)(=S)O[C@H]2[C@H]1O` [S-280, Sp-8-pFBnT-cAMPS]: in experiment [1], half-maximal activity (AC50) was put at 0.11 µM and the Rel. kmax was 4.9.

In experiment [1], `Nc1ncnc2c1nc(SCc1cccc([N+](=O)[O-])c1)n2[C@@H]1O[C@@H]2CO[P@](O)(=S)O[C@H]2[C@H]1O` [S-290, Sp-8-mNBnT-cAMPS] displayed an AC50 of 0.16 µM and a Rel. kmax of 4.3.

Take `Nc1ncnc2c1nc(SCc1cccc(C(F)(F)F)c1)n2[C@@H]1O[C@@H]2CO[P@](O)(=S)O[C@H]2[C@H]1O` [S-300, Sp-8-mTFMeBnT-cAMPS]: in experiment [1], the activity was half-maximal at 0.14 µM (AC50) and the Rel. kmax is given as 5.0.

As to `CCCO[C@@H]1[C@@H]2OP(=O)(O)OC[C@H]2O[C@H]1n1cnc2c(N)ncnc21` [Z-005, 2′-O-Pr-cAMP], in experiment [1], half-maximal activity (AC50) was put at 70 µM and the Rel. kmax came to 0.5.

In the case of `CCCCO[C@@H]1[C@@H]2OP(=O)(O)OC[C@H]2O[C@H]1n1cnc2c(N)ncnc21` [Z-006, 2′-O-Bu-cAMP], in experiment [1], half-maximal activity (AC50) was put at 120 µM and the Rel. kmax is on record as 1.0.

In experiment [1], `C=CCO[C@@H]1[C@@H]2OP(=O)(O)OC[C@H]2O[C@H]1n1cnc2c(N)ncnc21` [Z-007, 2′-O-All-cAMP] registered an AC50 of 70 µM and a Rel. kmax of 1.0.

In experiment [1], Sp-8-ADOA-cAMPS [S-060] returned an AC50 of 6.2 µM and a Rel. kmax of 2.1.

For the compound Sp-8-PIA-cAMPS [S-120], in experiment [1], the AC50 was 14 µM and the Rel. kmax was 2.3.

The term AC50 denotes the concentration at which the activity in the assay is half-maximal.

These data come from PMC4300089, “Structure-Guided Design of Selective Epac1 and Epac2 Agonists” (PLoS Biology, 2015).
